Measured values: publication PMC11705451 (FEBS Open Bio, 2024)
pEC50: −log10 of the molar value. Where two headings read alike, the source gives them in different places.

How the values were obtained:
[1] = biological target: T1, hS1P4 (ProLink-tagged, PathHunter) (Homo sapiens, UniProt O95977); assay: cell-based; design: species or system PathHunter HEK293; PathHunter beta-arrestin recruitment, agonist concentration-response; conditions: HEK293, read-out: S1P4 β-Arrestin Emax, % of S1P
T1 construct: gene S1PR4; ProLink-tagged receptor, PathHunter HEK293 cells
T1 sequence (O95977 1-384): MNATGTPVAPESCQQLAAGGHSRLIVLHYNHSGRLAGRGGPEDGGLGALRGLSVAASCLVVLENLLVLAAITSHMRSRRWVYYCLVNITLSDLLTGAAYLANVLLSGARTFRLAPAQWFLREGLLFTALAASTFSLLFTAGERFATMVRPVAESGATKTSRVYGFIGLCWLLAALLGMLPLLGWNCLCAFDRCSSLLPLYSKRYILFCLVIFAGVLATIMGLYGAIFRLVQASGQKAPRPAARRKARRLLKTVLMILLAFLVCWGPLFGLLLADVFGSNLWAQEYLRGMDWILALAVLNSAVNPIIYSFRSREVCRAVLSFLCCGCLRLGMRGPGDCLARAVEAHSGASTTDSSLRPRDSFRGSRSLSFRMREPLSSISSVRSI
From the text: (§1) We extended our pharmacological analysis of etrasimod and the other test compounds on S1P2–5. […] All tested compounds were agonists of S1P5, inducing both G protein signaling and β‐arrestin recruitment (Table S2).

[2] = biological target: T2, hS1P5 (ProLink-tagged, PathHunter) (Homo sapiens, UniProt Q9H228); assay: cell-based; design: species or system PathHunter HEK293; PathHunter beta-arrestin recruitment, agonist concentration-response; conditions: HEK293, read-out: S1P5 β-Arrestin Emax, % of S1P
T2 construct: gene S1PR5; ProLink-tagged receptor, PathHunter HEK293 cells
From the text: as §1

hS1P5 [3] = biological target: T3, hS1P5 (Homo sapiens, UniProt Q9H228); assay: biochemical; format: CHO-K1 membranes; design: [35S]GTPgammaS binding to membranes, agonist concentration-response; conditions: read-out: S1P5 GTPγS Emax, % of S1P
T3 construct: gene S1PR5; receptor stably expressed in CHO-K1 cells
From the text: (§2) All tested compounds were agonists of S1P5, inducing both G protein signaling and β‐arrestin recruitment (Table S2).

hS1P3 [4] = biological target: T4, hS1P3 (Homo sapiens, UniProt Q99500); assay: biochemical; format: CHO-K1 membranes; design: [35S]GTPgammaS binding to membranes, agonist concentration-response; conditions: read-out: S1P3 GTPγS Emax, % of S1P
T4 construct: gene S1PR3; receptor stably expressed in CHO-K1 cells
From the text: as §2

hS1P4 [5] = biological target: T5, hS1P4 (Homo sapiens, UniProt O95977); assay: […]GTPgammaS binding, CHO-K1 membranes; format: biochemical
T5 construct: gene S1PR4; receptor stably expressed in CHO-K1 cells
T5 sequence (O95977 1-384): T1 sequence (O95977 1-384)

hS1P3 [6] = biological target: T4, hS1P3; assay: […]GTPgammaS binding, CHO-K1 membranes; format: biochemical
[7] = biological target: T6, hS1P2 (ProLink-tagged, PathHunter) (Homo sapiens, UniProt O95136); assay: PathHunter beta-arrestin recruitment; format: cell-based
T6 construct: gene S1PR2; PathHunter HEK293 cells, ProLink-tagged; N-terminal HA tag in the internalization assay

hS1P2 [8] = biological target: T7, hS1P2 (Homo sapiens, UniProt O95136); assay: […]GTPgammaS binding, CHO-K1 membranes; format: biochemical
T7 construct: gene S1PR2; receptor stably expressed in CHO-K1 cells

hS1P5 [9] = biological target: T3, hS1P5; assay: […]GTPgammaS binding, CHO-K1 membranes; format: biochemical
[10] = biological target: T2, hS1P5 (ProLink-tagged, PathHunter); assay: PathHunter beta-arrestin recruitment; format: cell-based
[11] = biological target: T1, hS1P4 (ProLink-tagged, PathHunter); assay: PathHunter beta-arrestin recruitment; format: cell-based
[12] = biological target: T8, hS1P3 (ProLink-tagged, PathHunter) (Homo sapiens, UniProt Q99500); assay: cell-based; design: species or system PathHunter HEK293; PathHunter beta-arrestin recruitment, agonist concentration-response; conditions: HEK293, read-out: S1P3 β-Arrestin Emax, % of S1P
T8 construct: gene S1PR3; ProLink-tagged receptor, PathHunter HEK293 cells
From the text: as §1

hS1P2 [13] = biological target: T7, hS1P2; assay: biochemical; format: CHO-K1 membranes; design: [35S]GTPgammaS binding to membranes, agonist concentration-response; conditions: read-out: S1P2 GTPγS Emax, % of S1P
From the text: as §2

hS1P4 [14] = biological target: T5, hS1P4; assay: biochemical; format: CHO-K1 membranes; design: [35S]GTPgammaS binding to membranes, agonist concentration-response; conditions: read-out: S1P4 GTPγS Emax, % of S1P
From the text: as §2

[15] = biological target: T6, hS1P2 (ProLink-tagged, PathHunter); assay: receptor internalization, fluorescence microscopy; format: cell-based; conditions: N-terminal HA tag, 37 °C

T7 sequence (O95136 whole entry): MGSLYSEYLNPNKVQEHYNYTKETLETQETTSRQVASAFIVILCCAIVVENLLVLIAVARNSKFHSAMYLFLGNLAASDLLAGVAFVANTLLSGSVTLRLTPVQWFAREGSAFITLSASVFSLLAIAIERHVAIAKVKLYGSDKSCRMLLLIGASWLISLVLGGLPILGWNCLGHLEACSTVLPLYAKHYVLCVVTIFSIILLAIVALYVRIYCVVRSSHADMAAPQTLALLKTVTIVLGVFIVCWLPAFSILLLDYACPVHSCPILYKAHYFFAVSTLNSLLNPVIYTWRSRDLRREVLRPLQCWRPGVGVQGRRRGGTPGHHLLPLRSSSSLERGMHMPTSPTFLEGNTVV
T6 sequence (O95136 whole entry): as above
T4 sequence (Q99500 whole entry): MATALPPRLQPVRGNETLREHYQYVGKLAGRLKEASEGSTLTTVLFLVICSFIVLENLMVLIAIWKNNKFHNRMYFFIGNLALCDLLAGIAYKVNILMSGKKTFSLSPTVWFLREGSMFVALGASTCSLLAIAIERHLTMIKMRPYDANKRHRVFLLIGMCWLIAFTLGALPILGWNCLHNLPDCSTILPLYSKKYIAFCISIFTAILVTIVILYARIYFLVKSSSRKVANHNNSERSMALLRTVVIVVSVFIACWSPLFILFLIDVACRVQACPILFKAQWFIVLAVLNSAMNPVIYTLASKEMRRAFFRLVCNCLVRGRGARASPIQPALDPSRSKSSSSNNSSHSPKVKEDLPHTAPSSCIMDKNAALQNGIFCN
T2 sequence (Q9H228 whole entry): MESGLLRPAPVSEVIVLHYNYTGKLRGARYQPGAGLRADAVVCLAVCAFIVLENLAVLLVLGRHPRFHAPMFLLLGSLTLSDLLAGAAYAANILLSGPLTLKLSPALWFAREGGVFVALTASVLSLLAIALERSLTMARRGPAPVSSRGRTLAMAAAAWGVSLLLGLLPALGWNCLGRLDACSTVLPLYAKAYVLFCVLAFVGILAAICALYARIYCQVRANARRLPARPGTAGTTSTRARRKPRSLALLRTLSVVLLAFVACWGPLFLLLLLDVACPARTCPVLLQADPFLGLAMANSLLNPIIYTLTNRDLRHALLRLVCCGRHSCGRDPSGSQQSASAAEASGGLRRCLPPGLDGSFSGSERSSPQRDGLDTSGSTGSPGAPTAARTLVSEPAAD
T3 sequence (Q9H228 whole entry): as above
T8 sequence (Q99500 whole entry): as the sequence (Q99500 whole entry) above

Compound	Emax [1] [%]	Emax [2] [%]	Emax (hS1P5 [3]) [%]	Emax (hS1P3 [4]) [%]	pEC50 (hS1P4 [5])	pEC50 (hS1P3 [6])	pEC50 ([7]; read-out: EC50)	pEC50 (hS1P2 [8]; read-out: EC50)	pEC50 (hS1P5 [9])	pEC50 [10]	pEC50 [11]	Emax [12] [%]	Emax (hS1P2 [13]) [%]	Emax (hS1P4 [14]) [%]	EC50 ([7]; agonist, 0.1% fatty acid-free BSA, room temperature, 2 h)	EC50 (hS1P2 [8]; agonist, 0.1% fatty acid-free BSA, room temperature, 10 mM MgCl2)	receptor internalization, fluorescence microscopy [15]
O=C(O)C[C@H]1CCc2c1[nH]c1ccc(OCc3ccc(C4CCCC4)c(C(F)(F)F)c3)cc21 [Etrasimod]	53.9	85.7	72	41.5	< 5.00	5.22	< 5.00	< 5.00	7.20	7.20	6.85	–	–	–	–	–	–
CCCCCCCCc1ccc(CCC(N)(CO)COP(=O)(O)O)cc1 (stereo not shown) [Fingolimod(P)]	77.6	48.4	69.5	39.1	8.21	–	–	–	–	–	8.16	9.1	35.2	121	fingolimod(P) was a weak agonist, in terms of both potency and efficacy	fingolimod(P) was a weak agonist, in terms of both potency and efficacy	–

The next lines start with results.

Emax [1] [%]	Emax [2] [%]	Emax (hS1P5 [3]) [%]	Emax (hS1P3 [4]) [%]	pEC50 (hS1P4 [5])	pEC50 (hS1P3 [6])	pEC50 ([7]; read-out: EC50)	pEC50 (hS1P2 [8]; read-out: EC50)	pEC50 (hS1P5 [9])	pEC50 [10]	pEC50 [11]	Emax [12] [%]	Emax (hS1P2 [13]) [%]	Emax (hS1P4 [14]) [%]	Compound	EC50 ([7]; agonist, 0.1% fatty acid-free BSA, room temperature, 2 h)	EC50 (hS1P2 [8]; agonist, 0.1% fatty acid-free BSA, room temperature, 10 mM MgCl2)	receptor internalization, fluorescence microscopy [15]
89.1	115	105	–	< 5.00	< 5.00	–	–	7.23	7.02	< 6.30	–	–	–	CC(C)Oc1ccc(-c2nc(-c3cccc4c3CCC4=O)no2)cc1C#N [Ozanimod(K)]	–	–	–
–	–	–	–	< 5.00	< 5.22	–	–	7.54	7.91	< 6.30	–	–	–	CC(C)Oc1ccc(-c2nc(-c3cccc4c3CC[C@@H]4NCCO)no2)cc1C#N [Ozanimod]	–	–	Fingolimod(P) and ozanimod induced robust S1P2 internalization in a dose‐dependent and saturable fashion
92.6	107	118	–	6.29	< 5.00	–	–	–	–	< 6.30	–	–	134	CCc1cc(/C(C)=N/OCc2ccc(C3CCCCC3)c(C(F)(F)F)c2)ccc1CN1CC(C(=O)O)C1 [Siponimod]	–	–	–
